Experimental data: ChEMBL document CHEMBL1201862, “PubChem BioAssay data set” (2004)
Activity calls are given as the source filed them.

What was measured:
HEK293 [1] = test: cells; format: functional, cell-based; settings: Homo sapiens
HEK293 [2] = test: NOD1 signaling inhibitors, primary screen, cell-based, luminescence, uHTS (AID 1578); format: functional; settings: Homo sapiens
HEK293 [3] = test: NOD2 signaling inhibitors in MDP-stimulated cells, cell-based, uHTS, luminescence (AID 2001); format: functional; settings: Homo sapiens
[4] = target: Dual specificity tyrosine-phosphorylation-regulated kinase 1A (Rattus norvegicus, UniProt Q63470); format: biochemical, Homo sapiens
HEK293 [5] = test: cells; format: functional, cell-based; settings: Homo sapiens; remark: listed apart in the source
[6] = target: Nucleotide-binding oligomerization domain-containing protein 2 (Homo sapiens, UniProt Q9HC29); test: NOD2 signaling inhibitors, cell-based, luminescence, uHTS, HEK293 (AID 1566); format: functional
HEK293 [7] = test: cells; format: functional, cell-based; settings: Homo sapiens; remark: listed apart in the source
[8] = target: Beta-2 adrenergic receptor (Homo sapiens, UniProt P07550); test: beta2AR agonists driving receptor internalization, dose response, cell-based, FAP fluorogen, flow cytometry, cherry pick 1 (AID 588763); format: functional
[9] = target: T1, Mannose-6-phosphate isomerase (Homo sapiens, UniProt P34949); test: PMI enzyme inhibitors, confirmation, biochemical, fluorescence intensity (AID 1535)
T1 sequence (P34949 whole entry): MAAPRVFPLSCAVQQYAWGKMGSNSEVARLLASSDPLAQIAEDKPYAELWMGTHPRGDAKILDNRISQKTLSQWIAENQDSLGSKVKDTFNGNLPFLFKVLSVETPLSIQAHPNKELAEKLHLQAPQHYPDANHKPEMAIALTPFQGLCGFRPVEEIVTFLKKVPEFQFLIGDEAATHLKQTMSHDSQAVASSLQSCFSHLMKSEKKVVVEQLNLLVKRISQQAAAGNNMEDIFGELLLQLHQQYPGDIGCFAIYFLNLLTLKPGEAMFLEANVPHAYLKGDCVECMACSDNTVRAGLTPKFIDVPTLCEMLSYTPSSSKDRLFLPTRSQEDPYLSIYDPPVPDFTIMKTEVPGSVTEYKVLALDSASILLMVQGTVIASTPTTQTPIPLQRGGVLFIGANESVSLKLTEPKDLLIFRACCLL

Phosphomannomutase 2 = Phosphomannomutase 2 (Homo sapiens, UniProt O15305); test: Counter screen SAR assay for PMM2 inhibitors via a fluorescence intensity assay. [Related pubchem assays (depositor defined):AID1545, AID1574]
Cytochrome P450 2D6 = Cytochrome P450 2D6 (Homo sapiens, UniProt P10635);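 further: CYP2D6 member of a cytochrome P450 panel assay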
[10] = target: T2, High affinity choline transporter 1 (Homo sapiens, UniProt Q9GZV3); test: CHT inhibitors, dose response, cell-based, 5-point CRC, membrane potential dye (AID 504840); format: functional
T2 sequence (Q9GZV3 whole entry): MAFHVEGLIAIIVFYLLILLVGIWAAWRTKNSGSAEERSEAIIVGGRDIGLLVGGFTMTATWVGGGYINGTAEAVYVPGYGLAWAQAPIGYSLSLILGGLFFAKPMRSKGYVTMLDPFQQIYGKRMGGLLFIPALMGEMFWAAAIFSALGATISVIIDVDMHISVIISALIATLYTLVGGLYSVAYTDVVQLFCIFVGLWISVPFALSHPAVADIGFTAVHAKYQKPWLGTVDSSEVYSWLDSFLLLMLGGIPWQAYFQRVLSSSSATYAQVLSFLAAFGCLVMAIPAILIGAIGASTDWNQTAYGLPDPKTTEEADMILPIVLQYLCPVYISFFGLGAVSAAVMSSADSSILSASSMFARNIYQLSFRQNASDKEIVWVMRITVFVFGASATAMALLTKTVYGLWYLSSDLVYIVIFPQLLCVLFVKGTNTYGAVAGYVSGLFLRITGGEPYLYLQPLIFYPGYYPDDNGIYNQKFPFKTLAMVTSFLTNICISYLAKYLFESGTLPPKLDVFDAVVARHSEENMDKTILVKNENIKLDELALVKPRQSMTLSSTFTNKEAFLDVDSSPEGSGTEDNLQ

Vero = Vero cell cytotoxicity, cytotoxicity control for flavivirus capping enzyme inhibitors (AID 588742); format: functional; settings: Chlorocebus sabaeus
Cytochrome P450 2C9 = Cytochrome P450 2C9 (Homo sapiens, UniProt P11712)
[11] = target: T3, Sentrin-specific protease 1 (Homo sapiens, UniProt Q9P0U3); test: potency of human SENP1 inhibitors, dose response, biochemical, kinetic FRET (AID 651697); format: functional; settings: read-out: IC50_Mean
T3 sequence (Q9P0U3 whole entry): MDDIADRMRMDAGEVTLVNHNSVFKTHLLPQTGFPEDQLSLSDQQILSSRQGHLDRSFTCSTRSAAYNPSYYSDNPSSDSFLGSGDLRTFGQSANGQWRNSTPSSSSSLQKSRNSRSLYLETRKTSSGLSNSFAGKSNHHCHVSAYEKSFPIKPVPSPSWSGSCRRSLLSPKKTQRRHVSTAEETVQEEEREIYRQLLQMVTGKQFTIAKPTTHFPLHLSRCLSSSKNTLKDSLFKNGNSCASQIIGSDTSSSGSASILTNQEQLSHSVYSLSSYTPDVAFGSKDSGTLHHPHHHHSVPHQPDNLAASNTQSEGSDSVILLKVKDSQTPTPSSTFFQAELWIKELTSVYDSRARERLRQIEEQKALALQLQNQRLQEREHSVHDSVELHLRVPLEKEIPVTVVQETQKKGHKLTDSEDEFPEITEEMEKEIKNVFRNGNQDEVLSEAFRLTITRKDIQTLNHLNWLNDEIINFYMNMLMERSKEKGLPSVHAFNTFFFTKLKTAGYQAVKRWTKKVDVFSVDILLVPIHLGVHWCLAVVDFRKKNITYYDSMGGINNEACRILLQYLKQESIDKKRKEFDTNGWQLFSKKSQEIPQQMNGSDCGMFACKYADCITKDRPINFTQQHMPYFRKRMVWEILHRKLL

Cytochrome P450 2C19 = Cytochrome P450 2C19 (Homo sapiens, UniProt P33261); test: Cytochrome panel assay with activity outcomes. Panel member name: p450-cyp2c19 Compounds with AC50 equal or less than 10 uM are considered active; format: functional; settings: read-out: AC50
[12] = target: T3, Sentrin-specific protease 1; test: Dose response confirmation of small molecule inhibitors of the catalytic domain of the SUMO protease, SENP1 in a FRET assay.; format: functional; settings: read-out: IC50_Mean
[13] = ZM109 Env clade C HIV-1 fusion inhibitors, dose response, HeLa effector, CEM target cells, luciferase, cherry-pick (AID 652058); format: functional, cell-based
[14] = inhibitors of clade B AD8 Env fusion, dose response, cell-based, cherry-pick (AID 652062); format: functional;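 further: luciferase signal from cell-cell fusion driven by HIV-1 clade B AD8 Env; potency is for inhibitors of fusion seen as a drop in luminescence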
[15] = off-target signal loss in HeLa-CEM21 co-culture – HeLa F-luc CTL cells, cherry-picked, counter-screen for HIV-1 Env fusion inhibitor project, dose response (AID 652040); format: functional, cell-based;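 further: potency for signal decrease marking cytotoxic or nonspecific inhibition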
[16] = inhibitors of HIV Env-driven cell fusion, dose response, cherry-pick (AID 652057); format: functional, cell-based
HEK293 [17] = test: cells; settings: Homo sapiens
HEK293 [18] = test: cells; settings: Homo sapiens; remark: listed apart in the source
[19] = target: T4, Heat shock factor protein 1 (Mus musculus, UniProt P38532); test: HSF1 potentiators in luciferase reporter cells, confirmation, cell-based, NIH3T3, luminescence, dose retest (AID 435004); format: functional;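 further: stress induced by proteasome inhibitor MG132 added 30 min after compound; luciferase reporter driven by HSF1 response element in NIH3T3 cells; actives raise luminescence as potentiators of the MG132 stress response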
T4 sequence (P38532 whole entry): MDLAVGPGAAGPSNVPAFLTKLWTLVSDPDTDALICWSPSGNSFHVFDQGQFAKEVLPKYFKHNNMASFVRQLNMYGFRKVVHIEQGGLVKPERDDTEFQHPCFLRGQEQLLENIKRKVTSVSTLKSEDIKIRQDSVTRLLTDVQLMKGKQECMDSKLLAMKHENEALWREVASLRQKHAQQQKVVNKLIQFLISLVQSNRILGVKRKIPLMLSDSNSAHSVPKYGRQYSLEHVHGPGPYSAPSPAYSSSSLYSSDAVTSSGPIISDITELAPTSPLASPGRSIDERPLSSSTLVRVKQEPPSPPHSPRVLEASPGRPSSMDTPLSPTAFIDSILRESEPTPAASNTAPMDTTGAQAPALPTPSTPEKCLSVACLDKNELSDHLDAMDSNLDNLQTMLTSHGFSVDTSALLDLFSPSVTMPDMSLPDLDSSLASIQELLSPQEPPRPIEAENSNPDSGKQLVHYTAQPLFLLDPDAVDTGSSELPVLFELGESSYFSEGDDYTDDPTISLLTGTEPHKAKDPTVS

Large T antigen = Large T antigen (Simian virus 40, UniProt P03070); format: functional, Betapolyomavirus macacae;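 further: Confirmatory-stage PubChem screen for compounds that inhibit SV40 T antigen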
[20] = target: T1, Mannose-6-phosphate isomerase; test: inhibitors of human PMI, primary screen, biochemical, fluorescence intensity, coupled assay (AID 1209)
[21] = target: Glucose-6-phosphate 1-dehydrogenase (Homo sapiens, UniProt P11413); test: human G6PD enzyme inhibitors, dose response, selectivity assay for P. falciparum G6PD inhibitor project, biochemical, fluorescence (AID 504792); format: functional
[22] = target: DNA dC->dU-editing enzyme APOBEC-3A (Homo sapiens, UniProt P31941); test: APOBEC3A DNA deaminase inhibitors, dose response, biochemical (AID 504722); format: functional
[23] = target: T1, Mannose-6-phosphate isomerase; test: human PMI inhibitors, high substrate, primary screen, biochemical, fluorescence intensity, high mannose 6-phosphate (AID 1220)
[24] = THP-1 cell cytotoxicity, dose response, cytotoxicity control for non-replicating M. tuberculosis project (AID 489025); format: functional
[25] = target: DNA dC->dU-editing enzyme APOBEC-3G (Homo sapiens, UniProt Q9HC16); test: Dose Response confirmation of small molecule APOBEC3G DNA Deaminase Inhibitors via a fluorescence-based single-stranded DNA deaminase assay. [Related pubchem assays (depositor defined):AID493012, AID493028]; format: functional
DNA dC->dU-editing enzyme APOBEC-3G, sequence (Q9HC16 whole entry): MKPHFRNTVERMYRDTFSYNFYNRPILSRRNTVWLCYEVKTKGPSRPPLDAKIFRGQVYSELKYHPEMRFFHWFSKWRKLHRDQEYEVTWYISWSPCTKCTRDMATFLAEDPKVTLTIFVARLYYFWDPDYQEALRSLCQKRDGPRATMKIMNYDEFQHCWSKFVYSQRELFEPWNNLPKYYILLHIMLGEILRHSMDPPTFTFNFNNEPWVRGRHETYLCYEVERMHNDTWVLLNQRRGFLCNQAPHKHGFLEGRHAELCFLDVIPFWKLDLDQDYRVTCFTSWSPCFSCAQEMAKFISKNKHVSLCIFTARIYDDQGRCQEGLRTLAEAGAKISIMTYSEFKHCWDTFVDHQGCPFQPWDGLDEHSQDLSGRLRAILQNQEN

Phosphomannomutase 2, sequence (O15305 whole entry): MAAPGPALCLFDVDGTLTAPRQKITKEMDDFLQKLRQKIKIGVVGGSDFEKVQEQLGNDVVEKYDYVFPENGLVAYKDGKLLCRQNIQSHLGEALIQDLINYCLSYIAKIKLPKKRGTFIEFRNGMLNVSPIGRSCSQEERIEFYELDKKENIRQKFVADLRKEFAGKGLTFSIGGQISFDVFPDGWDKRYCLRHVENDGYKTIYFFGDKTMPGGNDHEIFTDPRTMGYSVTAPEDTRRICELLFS
Cytochrome P450 2D6, sequence (P10635 whole entry): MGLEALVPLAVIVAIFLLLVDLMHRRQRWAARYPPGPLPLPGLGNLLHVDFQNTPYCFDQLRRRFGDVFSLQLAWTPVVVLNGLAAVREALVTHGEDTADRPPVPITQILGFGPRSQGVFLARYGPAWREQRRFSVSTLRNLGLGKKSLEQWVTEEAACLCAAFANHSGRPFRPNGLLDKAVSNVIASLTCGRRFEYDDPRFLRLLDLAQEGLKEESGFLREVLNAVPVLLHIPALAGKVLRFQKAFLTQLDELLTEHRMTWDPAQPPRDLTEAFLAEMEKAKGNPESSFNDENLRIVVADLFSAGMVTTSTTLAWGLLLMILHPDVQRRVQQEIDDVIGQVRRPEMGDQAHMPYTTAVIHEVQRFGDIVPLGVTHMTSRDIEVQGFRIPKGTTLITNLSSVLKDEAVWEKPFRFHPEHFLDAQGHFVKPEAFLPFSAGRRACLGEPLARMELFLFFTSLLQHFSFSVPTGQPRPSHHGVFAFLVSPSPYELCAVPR
DNA dC->dU-editing enzyme APOBEC-3A, sequence (P31941 whole entry): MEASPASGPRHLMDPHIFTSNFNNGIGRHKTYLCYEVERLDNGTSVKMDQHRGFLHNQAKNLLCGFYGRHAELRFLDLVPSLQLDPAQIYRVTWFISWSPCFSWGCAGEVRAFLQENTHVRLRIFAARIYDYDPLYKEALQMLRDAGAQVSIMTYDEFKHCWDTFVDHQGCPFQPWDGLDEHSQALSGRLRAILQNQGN
Cytochrome P450 2C19, sequence (P33261 whole entry, the tested form may be a part): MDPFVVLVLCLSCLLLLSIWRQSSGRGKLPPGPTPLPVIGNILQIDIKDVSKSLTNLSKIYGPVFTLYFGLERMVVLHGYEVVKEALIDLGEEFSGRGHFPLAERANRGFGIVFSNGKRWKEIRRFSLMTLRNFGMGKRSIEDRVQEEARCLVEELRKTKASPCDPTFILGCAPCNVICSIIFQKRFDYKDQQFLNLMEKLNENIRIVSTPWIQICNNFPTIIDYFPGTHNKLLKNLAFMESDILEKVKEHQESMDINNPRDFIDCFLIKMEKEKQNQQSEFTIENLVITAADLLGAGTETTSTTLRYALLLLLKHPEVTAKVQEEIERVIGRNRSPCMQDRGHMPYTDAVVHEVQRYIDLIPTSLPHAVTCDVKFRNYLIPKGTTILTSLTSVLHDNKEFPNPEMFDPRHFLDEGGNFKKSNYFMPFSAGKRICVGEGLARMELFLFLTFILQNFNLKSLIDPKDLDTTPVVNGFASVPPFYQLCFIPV
Glucose-6-phosphate 1-dehydrogenase, sequence (P11413 whole entry): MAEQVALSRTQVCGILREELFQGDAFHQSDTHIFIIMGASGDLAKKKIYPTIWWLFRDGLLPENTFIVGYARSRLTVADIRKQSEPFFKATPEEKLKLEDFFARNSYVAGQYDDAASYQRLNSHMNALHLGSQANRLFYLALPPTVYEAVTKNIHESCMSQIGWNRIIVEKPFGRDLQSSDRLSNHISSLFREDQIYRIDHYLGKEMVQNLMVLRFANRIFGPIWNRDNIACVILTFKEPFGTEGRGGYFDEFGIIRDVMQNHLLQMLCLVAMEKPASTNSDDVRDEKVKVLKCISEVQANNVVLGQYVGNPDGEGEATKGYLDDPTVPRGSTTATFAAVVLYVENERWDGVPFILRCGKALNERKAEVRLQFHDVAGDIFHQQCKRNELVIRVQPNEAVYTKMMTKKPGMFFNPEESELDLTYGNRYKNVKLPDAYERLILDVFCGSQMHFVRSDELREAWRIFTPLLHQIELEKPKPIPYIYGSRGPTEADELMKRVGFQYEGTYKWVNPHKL
Large T antigen, sequence (P03070 whole entry): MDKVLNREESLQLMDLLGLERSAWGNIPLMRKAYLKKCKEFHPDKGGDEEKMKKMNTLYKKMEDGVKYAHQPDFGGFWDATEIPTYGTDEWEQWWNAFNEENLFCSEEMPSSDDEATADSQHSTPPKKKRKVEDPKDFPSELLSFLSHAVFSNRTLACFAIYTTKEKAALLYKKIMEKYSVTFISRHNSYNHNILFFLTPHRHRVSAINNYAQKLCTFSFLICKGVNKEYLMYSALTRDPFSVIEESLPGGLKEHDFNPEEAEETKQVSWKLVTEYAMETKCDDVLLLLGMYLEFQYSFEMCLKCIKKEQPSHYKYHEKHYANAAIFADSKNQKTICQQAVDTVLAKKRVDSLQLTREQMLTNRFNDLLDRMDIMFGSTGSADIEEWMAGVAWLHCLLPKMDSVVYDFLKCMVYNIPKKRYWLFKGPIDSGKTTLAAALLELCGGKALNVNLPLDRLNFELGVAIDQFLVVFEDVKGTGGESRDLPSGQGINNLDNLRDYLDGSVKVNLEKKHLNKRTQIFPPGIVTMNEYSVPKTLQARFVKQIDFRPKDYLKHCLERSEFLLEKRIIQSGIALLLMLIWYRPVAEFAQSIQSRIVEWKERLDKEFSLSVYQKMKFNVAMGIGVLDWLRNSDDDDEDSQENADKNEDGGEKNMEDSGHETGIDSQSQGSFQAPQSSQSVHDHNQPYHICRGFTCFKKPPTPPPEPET
Cytochrome P450 2C9, sequence (P11712 whole entry): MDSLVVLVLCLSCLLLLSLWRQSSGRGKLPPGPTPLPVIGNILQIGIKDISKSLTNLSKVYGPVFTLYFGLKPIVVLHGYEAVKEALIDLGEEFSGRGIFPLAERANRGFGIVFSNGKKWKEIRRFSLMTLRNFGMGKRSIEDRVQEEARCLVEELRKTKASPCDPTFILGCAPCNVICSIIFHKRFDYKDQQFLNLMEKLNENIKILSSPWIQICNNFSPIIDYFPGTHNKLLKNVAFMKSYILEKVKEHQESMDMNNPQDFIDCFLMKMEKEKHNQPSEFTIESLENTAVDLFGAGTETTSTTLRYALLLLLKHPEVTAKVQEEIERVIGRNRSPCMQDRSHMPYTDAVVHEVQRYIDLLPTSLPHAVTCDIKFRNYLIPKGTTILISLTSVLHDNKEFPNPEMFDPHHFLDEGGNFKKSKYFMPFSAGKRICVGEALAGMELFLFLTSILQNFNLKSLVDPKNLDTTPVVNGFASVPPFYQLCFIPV
Beta-2 adrenergic receptor, sequence (P07550 whole entry): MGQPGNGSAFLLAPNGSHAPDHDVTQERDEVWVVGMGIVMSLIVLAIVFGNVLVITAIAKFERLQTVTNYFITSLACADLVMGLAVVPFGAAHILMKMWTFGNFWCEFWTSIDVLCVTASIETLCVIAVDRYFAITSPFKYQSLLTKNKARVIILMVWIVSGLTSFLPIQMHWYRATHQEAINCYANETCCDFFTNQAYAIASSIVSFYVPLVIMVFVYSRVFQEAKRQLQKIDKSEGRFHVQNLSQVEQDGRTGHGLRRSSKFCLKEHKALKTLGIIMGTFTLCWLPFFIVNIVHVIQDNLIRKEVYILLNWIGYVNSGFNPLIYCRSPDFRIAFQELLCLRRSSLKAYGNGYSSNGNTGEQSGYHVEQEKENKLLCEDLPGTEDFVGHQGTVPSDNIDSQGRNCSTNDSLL
Nucleotide-binding oligomerization domain-containing protein 2, sequence (Q9HC29 whole entry, the tested form may be a part): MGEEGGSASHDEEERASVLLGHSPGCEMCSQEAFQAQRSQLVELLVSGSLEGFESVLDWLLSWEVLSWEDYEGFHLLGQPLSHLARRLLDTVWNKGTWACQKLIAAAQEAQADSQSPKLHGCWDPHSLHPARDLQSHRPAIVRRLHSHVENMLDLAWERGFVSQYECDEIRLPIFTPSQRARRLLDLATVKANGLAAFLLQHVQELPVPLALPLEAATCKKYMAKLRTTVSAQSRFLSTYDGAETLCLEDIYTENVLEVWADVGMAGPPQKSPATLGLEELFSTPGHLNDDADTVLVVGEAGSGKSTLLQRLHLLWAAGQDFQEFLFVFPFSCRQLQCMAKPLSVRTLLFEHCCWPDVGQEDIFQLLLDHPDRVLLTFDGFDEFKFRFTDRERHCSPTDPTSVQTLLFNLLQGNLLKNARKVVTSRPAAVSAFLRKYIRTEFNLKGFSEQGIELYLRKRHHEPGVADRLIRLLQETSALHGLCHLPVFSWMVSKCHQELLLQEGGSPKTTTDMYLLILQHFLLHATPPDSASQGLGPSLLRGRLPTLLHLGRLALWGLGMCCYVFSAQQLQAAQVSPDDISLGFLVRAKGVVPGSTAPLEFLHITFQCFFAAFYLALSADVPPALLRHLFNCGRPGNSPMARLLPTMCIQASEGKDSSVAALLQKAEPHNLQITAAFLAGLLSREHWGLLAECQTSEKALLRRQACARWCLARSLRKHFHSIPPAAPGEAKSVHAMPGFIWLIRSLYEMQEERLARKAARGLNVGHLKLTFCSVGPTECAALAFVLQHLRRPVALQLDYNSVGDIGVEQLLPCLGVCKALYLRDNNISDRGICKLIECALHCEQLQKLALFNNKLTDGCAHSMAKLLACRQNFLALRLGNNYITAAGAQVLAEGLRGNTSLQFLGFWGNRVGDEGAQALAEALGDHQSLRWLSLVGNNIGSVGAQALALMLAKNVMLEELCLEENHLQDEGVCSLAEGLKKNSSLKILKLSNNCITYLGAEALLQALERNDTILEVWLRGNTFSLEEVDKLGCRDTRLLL

CN(C)S(=O)(=O)c1cccc(NC(S)=Nc2cccc3cnccc23)c1
IC50 (HEK293 [1]): 3.39 µM (active) | EC50 (HEK293 [2]): 10.6 µM (active) | IC50 (HEK293 [3]): 4.64 µM (active) | AC50 [4]: 3.86 µM (active) | IC50 (HEK293 [5]): > 20 µM (inactive) | EC50 [6]: 9.33 µM (active) | IC50 (HEK293 [7]): 13.4 µM (active)

CCN(CC)S(=O)(=O)c1cc(NC(=O)C2=COCCO2)ccc1Cl
EC50 [8]: 0.038 µM (active)

Cc1cc2n(n1)SC(Nc1ccccc1)N2 (stereo unspecified)
IC50 [9]: > 50 µM (inactive) | IC50 (Phosphomannomutase 2): > 100 µM (inactive)

N/C(CC/C(N)=N/O)=N\O
AC50 (Cytochrome P450 2D6): inconclusive

Cc1ccccc1N1C(=O)NC(=O)/C(=C\c2c(-c3ccccc3)[nH]c3ccccc23)C1=O
IC50 [10]: 11 µM (active) | CC50 (Vero): 23.2 µM (active) | IC50 (HEK293 [1]): 8.69 µM (active) | EC50 (HEK293 [2]): 6.37 µM (active) | IC50 (HEK293 [3]): 15.4 µM (inactive) | IC50 (HEK293 [7]): > 20 µM (inactive)

CCOc1ccc(/C=C/C(=O)Nc2ccc(OC)cc2[N+](=O)[O-])cc1
AC50 (Cytochrome P450 2C9): inconclusive | IC50 [11]: 6.32 µM (active) | AC50 (Cytochrome P450 2D6): inconclusive | AC50 (Cytochrome P450 2C19): 39.8 µM (inconclusive) | IC50 [12]: 5.84 µM (active)

CCN(C[C@H]1N[C@@](CC)(C(=O)OC)[C@H]2C(=O)N(Cc3ccccc3)C(=O)[C@@H]12)S(=O)(=O)c1ccc(OC)cc1
AC50 [13]: 3.76 µM (active) | AC50 [14]: 7.2 µM (active) | AC50 [15]: 1.89 µM (active) | AC50 [16]: 1.64 µM (active) | EC50 (HEK293 [17]): > 59.6 µM (inactive) | EC50 (HEK293 [18]): > 59.6 µM (inactive)

CCCCSc1nc2c(=S)n(C)c(=O)n(C)c2[nH]1
EC50 (HEK293 [17]): > 59.5 µM (inactive) | EC50 (HEK293 [18]): > 59.5 µM (inactive)

COc1ccc(/C=c2\s/c(=C\C(=O)C(C)(C)C)[nH]c2=O)cc1O
EC50 [19]: 41.8 µM (active) | AC50 [4]: 4.65 µM (active)

Cc1ccnc(-n2sc3ccccc3c2=O)n1
IC50 (Large T antigen): 12.5 µM (active) | IC50 [20]: 11.2 µM (active) | IC50 [21]: 36.1 µM (inactive) | IC50 [22]: > 100 µM (inactive) | IC50 [23]: 17.8 µM (active) | CC50 [24]: > 40 µM (active) | IC50 [25]: 15.4 µM (active) | IC50 [9]: 4.43 µM (active) | IC50 (Phosphomannomutase 2): 65.9 µM (active)
